Assay [1] deals with Photoreceptor-specific nuclear receptor (Homo sapiens, UniProt Q9Y5X4). Format: functional, cell-based.
In assay [2] the target is Ion channel NompC (Danio rerio, UniProt Q7T1G6). In words: Fluorescence counterscreen assay for TRPML3 agonists: dose response cell-based high-throughput screening assay to identify agonists of the transient receptor potential channel N1 (TRPN1). [Related pubchem assays: 1526, 1424, 1448 ]. The format is functional.
The subject of assay [3] is Streptococcus sp. 'group A'. As to the kind of experiment: growth inhibition of control SK(-) GAS strain, dose response, counter-screen for streptokinase expression inhibitor project, luminescence, kanamycin, BacTiterGlo, confirmation (AID 1900). The format is functional, organism-based. On the technique in general: Counterscreens check selectivity or assay interference.

In assay [4] the target is Mucolipin-3 (Homo sapiens, UniProt Q8TDD5). In words: Dose response cell-based high-throughput screening assay for agonists of the transient receptor potential channel ML3 (TRPML3). [Related pubchem assays: 1526, 1424, 1448 ]. The format is functional.
Chain of Mucolipin-3 (Q8TDD5 whole entry): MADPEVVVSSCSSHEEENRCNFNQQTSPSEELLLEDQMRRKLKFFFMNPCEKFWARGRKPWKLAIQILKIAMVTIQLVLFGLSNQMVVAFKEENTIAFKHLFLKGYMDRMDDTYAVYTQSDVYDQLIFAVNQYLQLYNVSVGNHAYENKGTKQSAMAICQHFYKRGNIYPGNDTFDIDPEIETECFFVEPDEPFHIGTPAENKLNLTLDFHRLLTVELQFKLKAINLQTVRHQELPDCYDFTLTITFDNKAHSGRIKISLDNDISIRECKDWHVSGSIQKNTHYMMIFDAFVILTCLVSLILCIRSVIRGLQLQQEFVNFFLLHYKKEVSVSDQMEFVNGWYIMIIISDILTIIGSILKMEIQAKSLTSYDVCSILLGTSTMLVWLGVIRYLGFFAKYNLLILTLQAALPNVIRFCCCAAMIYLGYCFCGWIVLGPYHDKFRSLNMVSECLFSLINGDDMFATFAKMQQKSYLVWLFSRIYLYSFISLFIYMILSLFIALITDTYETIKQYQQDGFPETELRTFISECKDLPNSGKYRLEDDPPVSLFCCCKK
The subject of assay [5] is Streptococcus. As to the kind of experiment: Group A Streptococcus viability loss, dose response, counter-screen for streptokinase expression inhibitor project, luminescence, BacTiterGlo (AID 1915).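 Also: potency for reduction of bacterial viability or growth.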 The format is functional, organism-based.
The target of assay [6] is T1, Neuropeptide Y receptor type 1 (Homo sapiens, UniProt P25929). The format is functional.
T1 sequence (P25929 whole entry): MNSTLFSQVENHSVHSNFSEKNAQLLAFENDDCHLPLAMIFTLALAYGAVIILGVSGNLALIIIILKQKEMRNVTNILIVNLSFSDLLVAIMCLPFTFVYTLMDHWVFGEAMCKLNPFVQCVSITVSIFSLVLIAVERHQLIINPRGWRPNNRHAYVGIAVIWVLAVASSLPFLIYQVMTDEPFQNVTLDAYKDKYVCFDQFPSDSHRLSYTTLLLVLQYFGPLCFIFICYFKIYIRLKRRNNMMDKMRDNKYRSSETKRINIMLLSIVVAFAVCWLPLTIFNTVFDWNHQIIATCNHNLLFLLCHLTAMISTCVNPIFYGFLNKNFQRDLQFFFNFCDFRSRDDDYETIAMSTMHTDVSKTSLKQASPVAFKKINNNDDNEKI
Assay [7] concerns the target T2, Neuropeptide Y receptor type 2 (Homo sapiens, UniProt P49146). Format: functional, cell-based.
A short description of assay [8]: inhibitors of firefly luciferase expression or activity, dose response, H4 neuroglioma cells, luminescence (AID 1990). Format: functional, cell-based.
Assay [9] addresses T3, Exodeoxyribonuclease V (Escherichia coli (strain K12), UniProt P04993+P07648+P08394).
T3 sequence (P04993 whole entry): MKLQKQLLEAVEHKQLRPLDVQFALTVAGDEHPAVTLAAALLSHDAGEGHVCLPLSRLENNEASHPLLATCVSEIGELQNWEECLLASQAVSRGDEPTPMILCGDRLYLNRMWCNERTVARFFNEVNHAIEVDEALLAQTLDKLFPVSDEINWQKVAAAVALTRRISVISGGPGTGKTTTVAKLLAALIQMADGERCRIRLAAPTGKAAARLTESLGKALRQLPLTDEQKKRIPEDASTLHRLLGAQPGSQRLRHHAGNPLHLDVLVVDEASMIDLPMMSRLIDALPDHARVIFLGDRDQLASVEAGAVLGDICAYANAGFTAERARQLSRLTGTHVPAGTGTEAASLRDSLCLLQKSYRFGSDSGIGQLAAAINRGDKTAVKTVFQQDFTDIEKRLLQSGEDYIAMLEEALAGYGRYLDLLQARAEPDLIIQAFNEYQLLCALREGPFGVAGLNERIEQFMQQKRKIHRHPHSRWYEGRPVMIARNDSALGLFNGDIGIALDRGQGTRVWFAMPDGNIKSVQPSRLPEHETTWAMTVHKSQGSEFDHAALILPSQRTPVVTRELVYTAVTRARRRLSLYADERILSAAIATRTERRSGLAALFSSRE
T3 sequence (P07648 whole entry): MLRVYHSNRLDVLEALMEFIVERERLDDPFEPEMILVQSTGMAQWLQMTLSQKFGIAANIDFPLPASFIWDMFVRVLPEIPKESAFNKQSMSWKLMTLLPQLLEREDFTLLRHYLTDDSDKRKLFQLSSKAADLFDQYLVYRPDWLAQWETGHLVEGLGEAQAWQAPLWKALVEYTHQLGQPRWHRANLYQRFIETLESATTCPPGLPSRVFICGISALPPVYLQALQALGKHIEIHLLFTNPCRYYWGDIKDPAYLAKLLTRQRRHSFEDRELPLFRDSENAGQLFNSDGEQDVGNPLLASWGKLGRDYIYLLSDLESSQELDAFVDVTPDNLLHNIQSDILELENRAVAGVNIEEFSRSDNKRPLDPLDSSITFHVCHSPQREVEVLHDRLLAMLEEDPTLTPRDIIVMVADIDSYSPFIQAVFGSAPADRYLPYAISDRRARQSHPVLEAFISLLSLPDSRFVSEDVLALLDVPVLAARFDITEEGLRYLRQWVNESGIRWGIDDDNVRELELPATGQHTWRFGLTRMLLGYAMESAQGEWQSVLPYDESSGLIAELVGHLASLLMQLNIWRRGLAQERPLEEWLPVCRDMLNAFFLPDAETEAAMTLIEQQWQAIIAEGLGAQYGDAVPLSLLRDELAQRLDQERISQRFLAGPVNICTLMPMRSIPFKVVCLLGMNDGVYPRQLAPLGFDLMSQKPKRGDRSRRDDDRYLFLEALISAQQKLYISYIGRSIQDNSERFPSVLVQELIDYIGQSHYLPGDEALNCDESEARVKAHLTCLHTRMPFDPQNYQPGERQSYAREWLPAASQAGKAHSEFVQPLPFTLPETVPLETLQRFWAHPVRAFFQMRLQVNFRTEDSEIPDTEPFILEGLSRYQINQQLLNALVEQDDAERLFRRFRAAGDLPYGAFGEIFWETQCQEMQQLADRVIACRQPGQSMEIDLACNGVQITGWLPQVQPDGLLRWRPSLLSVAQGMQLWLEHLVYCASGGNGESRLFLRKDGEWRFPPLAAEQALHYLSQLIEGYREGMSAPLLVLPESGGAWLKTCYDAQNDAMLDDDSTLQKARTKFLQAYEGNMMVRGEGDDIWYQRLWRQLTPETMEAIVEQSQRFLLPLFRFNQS
T3 sequence (P08394 whole entry): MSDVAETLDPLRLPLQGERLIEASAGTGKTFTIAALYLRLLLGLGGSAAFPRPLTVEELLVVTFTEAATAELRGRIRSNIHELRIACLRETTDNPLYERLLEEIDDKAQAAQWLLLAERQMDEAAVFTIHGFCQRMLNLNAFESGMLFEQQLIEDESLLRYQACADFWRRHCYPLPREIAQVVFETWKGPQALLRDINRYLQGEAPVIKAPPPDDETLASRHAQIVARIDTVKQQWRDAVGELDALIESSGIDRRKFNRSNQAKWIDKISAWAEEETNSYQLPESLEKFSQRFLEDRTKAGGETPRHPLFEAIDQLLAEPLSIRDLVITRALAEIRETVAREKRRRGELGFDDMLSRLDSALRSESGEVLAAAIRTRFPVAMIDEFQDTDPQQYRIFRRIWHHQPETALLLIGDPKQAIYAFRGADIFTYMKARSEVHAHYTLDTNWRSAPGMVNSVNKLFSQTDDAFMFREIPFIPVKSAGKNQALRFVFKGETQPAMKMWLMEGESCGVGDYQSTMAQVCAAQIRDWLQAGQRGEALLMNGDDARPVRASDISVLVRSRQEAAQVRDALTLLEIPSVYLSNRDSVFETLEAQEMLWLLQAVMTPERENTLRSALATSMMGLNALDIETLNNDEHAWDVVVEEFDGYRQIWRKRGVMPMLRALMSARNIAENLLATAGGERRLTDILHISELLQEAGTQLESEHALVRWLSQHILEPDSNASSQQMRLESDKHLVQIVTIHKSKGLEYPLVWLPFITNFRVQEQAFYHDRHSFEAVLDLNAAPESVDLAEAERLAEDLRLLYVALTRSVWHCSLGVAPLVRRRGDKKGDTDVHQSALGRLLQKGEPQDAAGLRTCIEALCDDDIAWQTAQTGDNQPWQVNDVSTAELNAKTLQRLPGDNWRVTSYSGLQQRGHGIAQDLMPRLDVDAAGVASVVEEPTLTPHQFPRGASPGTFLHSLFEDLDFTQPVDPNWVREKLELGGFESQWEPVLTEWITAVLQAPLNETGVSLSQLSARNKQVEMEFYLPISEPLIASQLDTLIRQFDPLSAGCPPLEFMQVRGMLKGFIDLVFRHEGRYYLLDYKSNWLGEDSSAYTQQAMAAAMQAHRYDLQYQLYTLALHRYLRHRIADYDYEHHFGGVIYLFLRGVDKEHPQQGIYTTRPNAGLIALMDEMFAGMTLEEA
In words: E. coli RecBCD inhibitors, dose response, counter-screen for AddAB inhibitor project, absorbance, V66 E. coli, mutant T4 phage (AID 492957). Format: functional, cell-based, Escherichia coli str. K-12 substr. MG1655.

Assay [10] is described as follows: Counterscreen for AddAB inhibitors: absorbance-based bacterial cell-based high throughput dose response assay for inhibitors of bacterial viability. [Related pubchem assays (depositor defined):AID435030, AID449728, AID449731, AID488942, AID488955, AID488956]. Format: functional.
Assay [11] concerns the target Galanin receptor type 2 (Homo sapiens, UniProt O43603). In words: Dose Response cell-based high-throughput screening assay to identify antagonists of galanin receptor 2 (GALR2). [Related pubchem assays: 828, 866 ]. The format is functional.
The test system of assay [12] is BJ. As to the kind of experiment: cytotoxicity toward Ras-transformed BJeLR fibroblasts, dose response, cell-based, alamar blue fluorescence, cherrypicked samples (AID 2631).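 Also: confirmatory dose-response assay in RAS-dependent BJ fibroblasts engineered with TERT, LT and ST, with cytotoxicity read by fluorescence.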 The note with it: Homo sapiens. The format is functional.
Assay [13] in a line: Luminescence Cell-Based Dose Response HTS to Identify Inhibitors of 5'UTR Stem-Loop Driven Prion Protein mRNA Translation in H4 Neuroglioblastoma Cells. [Related pubchem assays: 1827 (Project Summary), 1813 (Primary HTS)]. The format is functional.
In assay [14] the target is Heat shock protein HSP 90-alpha (Homo sapiens, UniProt P07900). Format: functional, organism-based.
The nature of assay [15]: cytotoxicity toward DRD oncogenic fibroblasts, dose response, cell-based, non-viral oncogenic, luminescence (AID 1934). The format is functional. The note with it: Homo sapiens.
Assay [16] deals with Danio rerio. In words: In Vivo Angiogenesis Dose-Response Confirmation. [Related pubchem assays: 732 (Assay preceding this confirmatory assay.)]. Format: functional, organism-based.
For assay [17], the system named is BJ. As to the kind of experiment: cytotoxicity toward BJ-TERT fibroblasts, dose response, cell-based, RAS-independent, luminescence (AID 1933). Format: functional. The note with it: Homo sapiens.
Assay [18] has as its system BJ. As to the kind of experiment: cytotoxicity toward BJ-TERT-LT-ST fibroblasts, dose response, cell-based, RAS-independent, luminescence (AID 1935).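 Also: BJ fibroblasts immortalized with TERT plus LT and ST oncogenes.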 The format is functional. The note with it: Homo sapiens.
Assay [19] has as its target Nonstructural protein 1 (Influenza A virus, UniProt Q194T2). The format is functional, Influenza A virus (A/California/07/2009(H1N1)).
Assay [20] is described as follows: NIH-3T3 fibroblast cytotoxicity, dose response, cytotoxicity control, cell-based, fluorescence, Alamar Blue, secondary assay (AID 2327).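 Also: NIH-3T3 mouse fibroblasts cultured with fluconazole at 8 µg/mL.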 Format: functional. (In general: Resazurin is reduced to fluorescent resorufin, in cell work by metabolically active cells.)
Assay [21] has as its system BJ. In words: cells. Particulars: Homo sapiens. The format is functional, cell-based.
The nature of assay [22]: inhibitors of SNCA 5'UTR-driven reporter translation, confirmation, H4 neuroglioma cells, luminescence (AID 1988). The format is functional, cell-based.
Assay [23] addresses T2, Neuropeptide Y receptor type 2. In words: NPY-Y2 antagonist potency, selectivity check, dose response, counter-screen for NPY-Y1 antagonist project, cell-based (AID 1278). The format is functional.
For assay [24], the target named is T1, Neuropeptide Y receptor type 1. As to the kind of experiment: NPY-Y1 receptor antagonist potency, dose response, cell-based (AID 1277). The format is functional.
Assay [25] addresses Oxytocin receptor (Homo sapiens, UniProt P30559). In words: Fluorescence-based cell-based high throughput dose response assay for potentiators of Oxytocin Receptor (OXTR). [Related pubchem assays: 434985 (Confirmation screen (OXTR potentiators in triplicate)), 2481 (Summary (OXTR potentiators)), 2445 (Primary screen (OXTR potentiators in singlicate))]. Format: functional.

Drawing on ChEMBL document CHEMBL1201862, “PubChem BioAssay data set” (2004), this text covers IC50, EC50 and AC50 for five compounds.

Structures can show the parent of a compound that is named as a salt. Activity calls are given as the source filed them.

T2 sequence (P49146 whole entry): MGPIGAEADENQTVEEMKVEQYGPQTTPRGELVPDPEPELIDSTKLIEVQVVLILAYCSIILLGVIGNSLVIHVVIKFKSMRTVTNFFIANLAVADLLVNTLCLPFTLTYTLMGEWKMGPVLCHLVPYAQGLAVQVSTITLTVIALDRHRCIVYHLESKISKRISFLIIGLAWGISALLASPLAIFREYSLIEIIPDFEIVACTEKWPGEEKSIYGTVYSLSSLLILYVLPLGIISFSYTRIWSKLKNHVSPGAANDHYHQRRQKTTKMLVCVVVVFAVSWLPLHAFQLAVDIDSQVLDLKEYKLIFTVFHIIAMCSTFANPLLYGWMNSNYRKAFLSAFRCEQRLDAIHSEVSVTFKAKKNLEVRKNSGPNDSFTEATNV
Chain of Ion channel NompC (Q7T1G6 whole entry): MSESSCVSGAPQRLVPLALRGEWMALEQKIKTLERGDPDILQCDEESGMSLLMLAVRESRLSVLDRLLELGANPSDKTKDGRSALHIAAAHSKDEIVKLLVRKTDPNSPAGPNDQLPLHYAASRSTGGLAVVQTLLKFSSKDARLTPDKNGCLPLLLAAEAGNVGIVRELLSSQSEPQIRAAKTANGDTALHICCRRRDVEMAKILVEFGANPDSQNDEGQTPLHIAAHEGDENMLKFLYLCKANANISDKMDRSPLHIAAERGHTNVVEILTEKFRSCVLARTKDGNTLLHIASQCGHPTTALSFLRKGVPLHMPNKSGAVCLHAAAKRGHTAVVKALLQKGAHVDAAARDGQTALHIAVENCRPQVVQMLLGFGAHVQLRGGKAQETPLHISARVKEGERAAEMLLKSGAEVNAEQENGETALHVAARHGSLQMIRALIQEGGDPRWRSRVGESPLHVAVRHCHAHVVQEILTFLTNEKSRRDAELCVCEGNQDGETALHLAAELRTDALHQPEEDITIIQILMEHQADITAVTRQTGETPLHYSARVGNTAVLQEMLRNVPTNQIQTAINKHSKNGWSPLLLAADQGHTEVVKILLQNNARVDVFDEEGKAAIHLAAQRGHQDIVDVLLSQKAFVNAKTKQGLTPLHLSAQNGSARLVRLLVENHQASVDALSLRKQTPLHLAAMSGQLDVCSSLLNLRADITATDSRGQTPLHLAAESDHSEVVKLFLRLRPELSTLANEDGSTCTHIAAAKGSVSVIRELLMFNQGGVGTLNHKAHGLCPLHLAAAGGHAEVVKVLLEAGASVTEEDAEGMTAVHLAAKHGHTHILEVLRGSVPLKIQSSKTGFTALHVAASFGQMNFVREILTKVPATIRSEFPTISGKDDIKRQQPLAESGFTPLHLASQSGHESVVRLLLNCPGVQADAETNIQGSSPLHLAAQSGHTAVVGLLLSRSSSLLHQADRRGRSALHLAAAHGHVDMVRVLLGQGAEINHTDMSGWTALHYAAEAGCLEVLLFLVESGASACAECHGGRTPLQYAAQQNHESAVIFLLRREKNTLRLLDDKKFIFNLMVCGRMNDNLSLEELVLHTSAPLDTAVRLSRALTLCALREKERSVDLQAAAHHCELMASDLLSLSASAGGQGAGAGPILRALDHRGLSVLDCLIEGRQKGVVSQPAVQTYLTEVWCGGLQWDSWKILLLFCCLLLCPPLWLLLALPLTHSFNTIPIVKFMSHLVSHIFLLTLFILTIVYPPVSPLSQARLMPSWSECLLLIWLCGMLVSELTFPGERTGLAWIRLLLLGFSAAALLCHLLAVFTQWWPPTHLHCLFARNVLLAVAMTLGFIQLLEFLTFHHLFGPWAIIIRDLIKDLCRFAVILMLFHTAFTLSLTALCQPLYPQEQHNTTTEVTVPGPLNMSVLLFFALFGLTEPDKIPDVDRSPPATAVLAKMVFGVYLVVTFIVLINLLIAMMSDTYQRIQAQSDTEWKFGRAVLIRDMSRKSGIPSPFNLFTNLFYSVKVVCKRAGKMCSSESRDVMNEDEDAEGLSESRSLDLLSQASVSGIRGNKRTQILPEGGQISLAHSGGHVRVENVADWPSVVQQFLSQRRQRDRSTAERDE
Chain of Oxytocin receptor (P30559 whole entry): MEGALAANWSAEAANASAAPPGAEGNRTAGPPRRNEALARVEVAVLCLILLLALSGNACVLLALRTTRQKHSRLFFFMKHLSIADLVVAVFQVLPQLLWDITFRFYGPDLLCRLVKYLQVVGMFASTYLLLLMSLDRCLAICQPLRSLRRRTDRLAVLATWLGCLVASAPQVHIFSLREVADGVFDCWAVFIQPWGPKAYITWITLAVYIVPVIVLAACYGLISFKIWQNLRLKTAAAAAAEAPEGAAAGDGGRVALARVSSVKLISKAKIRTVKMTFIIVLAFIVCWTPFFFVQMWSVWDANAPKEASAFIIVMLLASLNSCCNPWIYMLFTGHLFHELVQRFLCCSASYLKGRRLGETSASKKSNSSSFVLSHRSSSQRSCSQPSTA
Chain of Nonstructural protein 1 (Q194T2 whole entry): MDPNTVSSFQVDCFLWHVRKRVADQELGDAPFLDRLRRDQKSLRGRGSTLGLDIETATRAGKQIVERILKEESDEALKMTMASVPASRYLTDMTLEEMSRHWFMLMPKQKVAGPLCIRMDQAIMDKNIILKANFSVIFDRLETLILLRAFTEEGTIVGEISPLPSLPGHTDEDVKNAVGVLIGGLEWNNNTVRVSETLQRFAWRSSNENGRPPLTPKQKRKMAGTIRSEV
Chain of Galanin receptor type 2 (O43603 whole entry): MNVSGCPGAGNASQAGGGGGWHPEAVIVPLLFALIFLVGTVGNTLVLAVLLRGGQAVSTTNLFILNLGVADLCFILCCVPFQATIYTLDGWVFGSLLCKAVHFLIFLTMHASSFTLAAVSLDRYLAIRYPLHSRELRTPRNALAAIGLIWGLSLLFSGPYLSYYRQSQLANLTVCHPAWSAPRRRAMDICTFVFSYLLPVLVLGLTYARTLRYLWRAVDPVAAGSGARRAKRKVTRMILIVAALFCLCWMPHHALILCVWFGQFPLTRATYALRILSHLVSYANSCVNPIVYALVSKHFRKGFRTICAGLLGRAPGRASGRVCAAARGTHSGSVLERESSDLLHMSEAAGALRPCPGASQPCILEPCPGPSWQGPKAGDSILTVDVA
Chain of Photoreceptor-specific nuclear receptor (Q9Y5X4 whole entry): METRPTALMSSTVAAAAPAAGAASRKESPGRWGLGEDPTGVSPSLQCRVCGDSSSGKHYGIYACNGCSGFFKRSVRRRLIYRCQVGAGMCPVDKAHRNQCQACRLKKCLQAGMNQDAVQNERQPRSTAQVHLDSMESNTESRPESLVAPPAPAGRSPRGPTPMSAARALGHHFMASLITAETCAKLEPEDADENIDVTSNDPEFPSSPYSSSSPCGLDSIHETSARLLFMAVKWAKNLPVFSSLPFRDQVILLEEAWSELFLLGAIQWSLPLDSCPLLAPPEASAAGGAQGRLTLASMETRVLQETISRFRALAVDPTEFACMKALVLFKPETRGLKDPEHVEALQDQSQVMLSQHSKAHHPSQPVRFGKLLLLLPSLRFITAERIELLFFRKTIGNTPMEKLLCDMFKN

As for `N=C1SCC(=O)N1c1ncc(Cc2cccc(Cl)c2)s1`, in assay [1], the IC50 – broadly, the concentration needed to halve the response being measured – was 2.63 µM (active). The EC50 (usually the concentration at which the effect is half-maximal) in [2] is > 29.9 µM (not active); in assay [3], 0.244 µM (active); in assay [4] it was 5.44 µM (active); in assay [5] it was 3.33 µM (active).
Consider `CN(C)C(=O)C(CCN1CCC(O)(c2ccc(Cl)cc2)CC1)(c1ccccc1)c1ccccc1` [LOPERAMIDE HYDROCHLORIDE], for which the IC50 in [6] and in assay [7] was > 35 µM (not active) each time.
Turning to `c1cnc2c(c1)ccc1cccnc12` [PHENANTHROLINE], the EC50 in assay [8] was 6.95 µM (active); in assay [12] it was 6.14 µM (active); in assay [13] it was 5.66 µM (active); in assay [15], 16.4 µM (active); in [17], 5.03 µM (active); in assay [18] it was 7.62 µM (inconclusive). The EC50 in assay [20] is 9.41 µM (inconclusive); in assay [21], 8.88 µM (inconclusive); in assay [22], 7.02 µM (active). Moreover, the IC50 in [9] was 30.5 µM (inactive); in assay [10], 35.2 µM (inactive); in assay [11], > 42 µM (not active); in assay [16], 7.51 µM (active); in assay [19], 0.902 µM (active). Further, the AC50 (in general, the concentration at which the activity in the assay is half-maximal) in [14] was 7.11 µM (active).
For the compound `COc1ccc(N(C)S(=O)(=O)c2cccc(C(=O)NC3CCC(C)CC3)c2)cc1` (stereo not given), the IC50 in [23] and in assay [24] was > 35 µM (not active) each time.
As for `CCOc1ccccc1NC(=O)c1cccc(NC(=O)CC(c2ccccc2)c2ccccc2)c1`, the EC50 in assay [25] is > 29.9 µM (not active).
